Source: US11230717B2, “Plants having increased tolerance to herbicides” (BASF SE, priority 2013, dated 2022)

Columns and labels:
Avena HPPD = assay: HPPD activity assay, in vitro characterization; assay type: biochemical, Avena sativa; settings: normalized to Hordeum SEQ ID NO:2
Method: HPPD produces homogentisic acid and CO2 from 4-hydroxyphenylpyruvate (4-HPP) and O2. The activity assay for HPPD is based on the analysis of homogentisic acid by reversed phase HPLC.
The assay mixture can contain 150 mM potassium phosphate buffer pH 7.0, 50 mM L-ascorbic acid, 100 μM Catalase (Sigma-Aldrich), 1 μM FeSO4 and 0.2 units of purified HPPD enzyme in a total volume of 505 μl. 1 unit is defined as the amount of enzyme that is required to produce 1 nmol of HGA per minute at 20° C.
After a preincubation of 30 min the reaction is started by adding 4-HPP to a final concentration of 0.05 mM. The reaction is allowed to proceed for 45 min at room temperature. The reaction is stopped by the addition of 50 μl of 4.5 M phosphoric acid. The sample is filtered using a […] pore size PVDF filtration device.
5 μl of the cleared sample is analyzed on an UPLC HSS T3 column (particle size 1.8 μm, dimensions 2,1×50 mm; Waters) by isocratic elution using 90% 20 mM NaH2PO4 pH 2.2, 10% methanol (v/v).
HGA is detected electrochemically at 750 mV (mode: DC; polarity: positive) and quantified by integrating peak areas (Empower software; Waters).
Inhibitors are dissolved in DMSO (dimethylsulfoxide) to a concentration of 0.5 mM. From this stock solution serial five-fold dilutions are prepared in DMSO, which are used in the assay. […] IC50 values are calculated using non-linear regression. […]

transgenic Corn plants = assay: Greenhouse testing of transgenic Corn plants (homozygous T2), herbicide spray test; assay type: in vivo, Zea mays
Method: Transgenic plants expressing heterologous HPPD or HST enzymes are tested for tolerance against HPPD-inhibiting herbicides in greenhouse experiments.
For post emergence treatment, the test plants are first grown to a height of 3 to 15 cm, depending on the plant habit, and only then treated with the herbicides. For this purpose, the test plants are either sown directly and grown in the same containers, or they are first grown separately and transplanted into the test containers a few days prior to treatment. For testing of T0 plants, cuttings can be used. In the case of soybean plants, an optimal shoot for cutting is about 7.5 to 10 cm tall, with at least two nodes present. Each cutting is taken from the original transformant (mother plant) and dipped into rooting hormone powder (indole-3-butyric acid, IBA). The cutting is then placed in oasis wedges inside a bio-dome. Wild type cuttings are also taken simultaneously to serve as controls. The cuttings are kept in the bio-dome for 5-7 days and then transplanted to pots and then acclimated in the growth chamber for two more days. Subsequently, the cuttings are transferred to the greenhouse, acclimated for approximately 4 days, and then subjected to spray tests as indicated.
Depending on the species, the plants are kept at 10-25° C. or 20-35° C. The test period ex-tends over 3 weeks. During this time, the plants are tended and their response to the individual treatments is evaluated. Herbicide injury evaluations are taken at 2 and 3 weeks after treatment. Plant injury is rated on a scale of 0 to 9, 0 being no injury and 9 being complete death.
Transgenic corn plants were sprayed with doses from 62.5-250 g/ha with the benzamide-derivative HPPD-inhibiting herbicide and injury evaluations were taken two weeks after treatment. […] As depicted in Table 19, control plants were severely injured by all doses of herbicide applied, with 86% of leaf material being damaged at the highest rate applied. […] Application of 250 g/ha active ingredient resulted only in 10% leaf damage (event 1) in transgenic plants which gave in direct comparison with wild-type plants (injury value is 86%) an 8-fold increased tolerance at this application rate. In addition, transgenic corn plants comprising a transgene encoding the mutated version of Arabidopsis HPPD with methionine 335 exchanged to histidine, are tolerant for the benzamide-derivative inhibitor tested in the present invention.

transgenic Soy plants = assay: Greenhouse testing of transgenic Soy plants (T2), herbicide spray test; assay type: in vivo, Glycine max

**Q.** Which “Normalized tolerance index (TI)” value (Avena HPPD) does the source give for `Cn1nnnc1NC(=O)c1c(F)cc(Cl)c(S(C)(=O)=O)c1Cl` [Inhibitor 1, 2,4-dichloro-6-fluoro-3-methylsulfonyl-N-(1-methyltetrazol-5-yl)benzamide] here?
**A.** 2.8

**Q.** For `CSc1c(Cl)cc(F)c(C(=O)Nc2ncnn2C)c1Cl` [Inhibitor 3, 2,4-dichloro-6-fluoro-3-methylsulfanyl-N-(2-methyl-1,2,4-triazol-3-yl)benzamide], which “Normalized tolerance index (TI)” value (Avena HPPD) is on record?
**A.** 2.8

**Q.** And the “Injury evaluation, scale 0-100%” value (transgenic Corn plants; Corn AtL385V, I393L Event 1, 62.5 g/ha, two weeks)?
**A.** 3%

**Q.** What about the “Injury evaluation, scale 0-100%” value (transgenic Corn plants; Corn AtL385V, I393L Event 1, 125 g/ha, two weeks) of the same molecule?
**A.** 7%

**Q.** What about the “Injury evaluation, scale 0-100%” value (transgenic Corn plants; Corn AtL385V, I393L Event 1, 250 g/ha, two weeks) of the same molecule?
**A.** 10%

**Q.** What about the “Injury evaluation, scale 0-100%” value (transgenic Corn plants; Corn AtL385V, I393L Event 2, 62.5 g/ha, two weeks) of the same molecule?
**A.** 6%

**Q.** And the “Injury evaluation, scale 0-100%” value (transgenic Corn plants; Corn AtL385V, I393L Event 2, 125 g/ha, two weeks)?
**A.** 10%

**Q.** And the “Injury evaluation, scale 0-100%” value (transgenic Corn plants; Corn AtL385V, I393L Event 2, 250 g/ha, two weeks)?
**A.** 47%

**Q.** What about the “Injury evaluation, scale 0-100%” value (transgenic Corn plants; Corn AtM335H, 62.5 g/ha, two weeks) of the same molecule?
**A.** 3%

**Q.** What about the “Injury evaluation, scale 0-100%” value (transgenic Corn plants; Corn AtM335H, 125 g/ha, two weeks) of the same molecule?
**A.** 4%

**Q.** And the “Injury evaluation, scale 0-100%” value (transgenic Corn plants; Corn AtM335H, 250 g/ha, two weeks)?
**A.** 6%

**Q.** What about the “Injury evaluation, scale 0-100%” value (transgenic Corn plants; Corn WT, 62.5 g/ha, two weeks after treatment) of the same molecule?
**A.** 40%

**Q.** What about the “Injury evaluation, scale 0-100%” value (transgenic Corn plants; Corn WT, 125 g/ha, two weeks after treatment) of the same molecule?
**A.** 63%

**Q.** And the “Injury evaluation, scale 0-100%” value (transgenic Corn plants; Corn WT, 250 g/ha, two weeks after treatment)?
**A.** 86%

**Q.** And the “Injury evaluation, scale 0-100%” value (transgenic Soy plants; Soy AtHPPD Event 1, 31.25 g/ha, two weeks)?
**A.** 10%

**Q.** What about the “Injury evaluation, scale 0-100%” value (transgenic Soy plants; Soy AtHPPD Event 1, 62.5 g/ha, two weeks) of the same molecule?
**A.** 16%

**Q.** What about the “Injury evaluation, scale 0-100%” value (transgenic Soy plants; Soy AtHPPD Event 1, 125 g/ha, two weeks) of the same molecule?
**A.** 44%

**Q.** And the “Injury evaluation, scale 0-100%” value (transgenic Soy plants; Soy AtHPPD Event 2, 31.25 g/ha, two weeks)?
**A.** 13%

**Q.** What about the “Injury evaluation, scale 0-100%” value (transgenic Soy plants; Soy AtHPPD Event 2, 62.5 g/ha, two weeks) of the same molecule?
**A.** 23%

**Q.** And the “Injury evaluation, scale 0-100%” value (transgenic Soy plants; Soy AtHPPD Event 2, 125 g/ha, two weeks)?
**A.** 40%

**Q.** What about the “Injury evaluation, scale 0-100%” value (transgenic Soy plants; Soy AtL385V, I393L Event 2, 31.25 g/ha, two weeks) of the same molecule?
**A.** 20%

**Q.** What about the “Injury evaluation, scale 0-100%” value (transgenic Soy plants; Soy AtL385V, I393L Event 2, 62.5 g/ha, two weeks) of the same molecule?
**A.** 35%

**Q.** And the “Injury evaluation, scale 0-100%” value (transgenic Soy plants; Soy AtL385V, I393L Event 2, 125 g/ha, two weeks)?
**A.** 38%

**Q.** And the “Injury evaluation, scale 0-100%” value (transgenic Soy plants; Soy AtM335H Event 1, 31.25 g/ha, two weeks)?
**A.** 10%

**Q.** What about the “Injury evaluation, scale 0-100%” value (transgenic Soy plants; Soy AtM335H Event 1, 62.5 g/ha, two weeks) of the same molecule?
**A.** 21%

**Q.** What about the “Injury evaluation, scale 0-100%” value (transgenic Soy plants; Soy AtM335H Event 1, 125 g/ha, two weeks) of the same molecule?
**A.** 33%

**Q.** And the “Injury evaluation, scale 0-100%” value (transgenic Soy plants; Soy AtM335H Event 2, 31.25 g/ha, two weeks)?
**A.** 14%

**Q.** And the “Injury evaluation, scale 0-100%” value (transgenic Soy plants; Soy AtM335H Event 2, 62.5 g/ha, two weeks)?
**A.** 29%

**Q.** And the “Injury evaluation, scale 0-100%” value (transgenic Soy plants; Soy AtM335H Event 2, 125 g/ha, two weeks)?
**A.** 31%

**Q.** What about the “Injury evaluation, scale 0-100%” value (transgenic Soy plants; Soy AtM335Y, 31.25 g/ha, two weeks) of the same molecule?
**A.** 9%

**Q.** And the “Injury evaluation, scale 0-100%” value (transgenic Soy plants; Soy AtM335Y, 62.5 g/ha, two weeks)?
**A.** 45%

**Q.** And the “Injury evaluation, scale 0-100%” value (transgenic Soy plants; Soy AtM335Y, 125 g/ha, two weeks)?
**A.** 46%

**Q.** What about the “Injury evaluation, scale 0-100%” value (transgenic Soy plants; Soy AtP336A, E363Q, L385V, I393L, 31.25 g/ha, two weeks) of the same molecule?
**A.** 30%

**Q.** And the “Injury evaluation, scale 0-100%” value (transgenic Soy plants; Soy AtP336A, E363Q, L385V, I393L, 62.5 g/ha, two weeks)?
**A.** 30%

**Q.** And the “Injury evaluation, scale 0-100%” value (transgenic Soy plants; Soy AtP336A, E363Q, L385V, I393L, 125 g/ha, two weeks)?
**A.** 50%

**Q.** And the “Injury evaluation, scale 0-100%” value (transgenic Soy plants; Soy GmHPPD1, 31.25 g/ha, two weeks)?
**A.** 15%

**Q.** What about the “Injury evaluation, scale 0-100%” value (transgenic Soy plants; Soy GmHPPD1, 62.5 g/ha, two weeks) of the same molecule?
**A.** 29%

**Q.** What about the “Injury evaluation, scale 0-100%” value (transgenic Soy plants; Soy GmHPPD1, 125 g/ha, two weeks) of the same molecule?
**A.** 46%

**Q.** And the “Injury evaluation, scale 0-100%” value (transgenic Soy plants; Soy, transgene none, 31.25 g/ha, two weeks after treatment)?
**A.** 49%

**Q.** And the “Injury evaluation, scale 0-100%” value (transgenic Soy plants; Soy, transgene none, 62.5 g/ha, two weeks after treatment)?
**A.** 68%

**Q.** What about the “Injury evaluation, scale 0-100%” value (transgenic Soy plants; Soy, transgene none, 125 g/ha, two weeks after treatment) of the same molecule?
**A.** 79%
